Measurements from patent EP1401467B3, “ALPHA-FETOPROTEIN PEPTIDES AND USES THEREOF” (Albany Medical College, priority 2001, dated 2003).
Entries after “also recorded” stand apart in the source; their conditions may differ. Square brackets hold non-standard residues; d marks the D form. Peptide text beside a SMILES is read from it. Hyp = O=C(O)[C@@H]1C[C@@H](O)CN1

How the values were obtained:
[1] = tested on: E2-stimulated growth of immature mouse uterus; conditions: for dose of maximal inhibitory activity on estrogen-stimulated growth of immature mouse uterus: i.p., dose-response
Protocol: (§1) Peptide or vehicle control was injected i.p. into immature female Swiss mice. One hour later 0.5 µg of E2 or vehicle control was injected i.p. into these mice. Twenty-two hours later, uteri were dissected and weighed. Percent inhibition of E2-stimulated growth of uterus by peptide was calculated as described in Materials and Methods. There were five to eight replicate mice per treatment group. (Figure 1a) Peptide dose-response. […] Peptide, SEQ ID NO:2: […], was fractionated using a Waters SW 200 gel-filtration column using phosphate buffered saline pH 7.4 as mobil phase. Fractions which had significant UV absorbance at 230 nm were collected at twenty second intervals. The first fraction (Frac I), the last fraction (Frac III), and the starting material (UnFrac) were all tested in the immature mouse uterine growth assay as described in Figures 1a and 1b. […] (Figure 3a) dose-response. […] (Figure 4a) dose-response. […] There were five to eight replicate mice per treatment group. Estrogen was provided via a slow release pellet implanted subcutaneously. Peptide was given twice a day i.p. at a dose of 1 µg per mouse. Tumor volumes in each mouse were measured at the time of tumor implantation and at 10-day intervals thereafter during survival laparotomies. […] (Figure 6a) dose-response. […] Experimental protocol is described in legend to Figure 5 and Materials and Methods. […] Rabbit uterine cytosol was used as a source of estrogen receptor. All incubations were performed in triplicate, each containing 100 µl of cytosol, 20 µl of 10 nM 6,7-^3Hestradiol (50 Ci/mmol), and 80 µl of test agent at the final concentrations indicated on the abscissa. Details of the assay are described in Materials and Methods. • Concentration of [^3H] E2-complex with receptor in the presence of different concentrations of test agent is expressed as a percentage of the amount of complex formed in the absence of test agent; • Figures 9a and 9b illustrate the effect of AFP-derived peptide on growth of estrogen-receptor-positive MCF-7 and MCF-7/Tam.human breast cancer xenografts. Tumors were implanted as described in Materials and Methods. […] Tumor volumes in each mouse were measured at the time of tumor implantation, again at day 15 after tumor implantation during survival laparotomy and again at day 30 after tumor implantation during necropsy. There was a minimum of 5 mice per group. (Figure 9a) MCF-7 tumors. […] See legend to Figures 9a and 9b for experimental protocol. […] See legend to Figures 9a and 9b for experimental protocol. […] Rabbit uterine cytosol was used as a source of estrogen receptor. All incubations were performed in triplicate, each containing 100 µl of cytosol, 20 µl of 10 nM 6,7-^3H estradiol (50 Ci/mmol), and 80 µl of test agent at the final concentrations indicated on the abscissa. Concentration of [^3H] […] The assay procedure is described in the Materials and Methods.

[2] = Shelf-life / storage studies of lyophilized peptide, read out in the immature mouse uterine growth assay; assay type: physicochemical; conditions: for shelf-life: storage in the lyophilized state at -20°C, activity tested in immature mouse uterine growth assay
Protocol: Peptide or vehicle control was injected i.p. into immature female Swiss mice. One hour later 0.5 µg of E2 or vehicle control was injected i.p. into these mice. Twenty-two hours later, uteri were dissected and weighed. Percent inhibition of E2-stimulated growth of uterus by peptide was calculated as described in Materials and Methods. There were five to eight replicate mice per treatment group. (Figure 1a) Peptide dose-response. […] Peptide, SEQ ID NO:2: […], was fractionated using a Waters SW 200 gel-filtration column using phosphate buffered saline pH 7.4 as mobil phase. Fractions which had significant UV absorbance at 230 nm were collected at twenty second intervals. The first fraction (Frac I), the last fraction (Frac III), and the starting material (UnFrac) were all tested in the immature mouse uterine growth assay as described in Figures 1a and 1b. […] (Figure 3a) dose-response. […] (Figure 4a) dose-response. […] There were five to eight replicate mice per treatment group. Estrogen was provided via a slow release pellet implanted subcutaneously. Peptide was given twice a day i.p. at a dose of 1 µg per mouse. Tumor volumes in each mouse were measured at the time of tumor implantation and at 10-day intervals thereafter during survival laparotomies. […] (Figure 6a) dose-response. […] Experimental protocol is described in legend to Figure 5 and Materials and Methods. […] Rabbit uterine cytosol was used as a source of estrogen receptor. All incubations were performed in triplicate, each containing 100 µl of cytosol, 20 µl of 10 nM 6,7-^3Hestradiol (50 Ci/mmol), and 80 µl of test agent at the final concentrations indicated on the abscissa. Details of the assay are described in Materials and Methods. • Concentration of [^3H] E2-complex with receptor in the presence of different concentrations of test agent is expressed as a percentage of the amount of complex formed in the absence of test agent; • Figures 9a and 9b illustrate the effect of AFP-derived peptide on growth of estrogen-receptor-positive MCF-7 and MCF-7/Tam.human breast cancer xenografts. Tumors were implanted as described in Materials and Methods. […] Tumor volumes in each mouse were measured at the time of tumor implantation, again at day 15 after tumor implantation during survival laparotomy and again at day 30 after tumor implantation during necropsy. There was a minimum of 5 mice per group. (Figure 9a) MCF-7 tumors. […] See legend to Figures 9a and 9b for experimental protocol. […] See legend to Figures 9a and 9b for experimental protocol. […] Rabbit uterine cytosol was used as a source of estrogen receptor. All incubations were performed in triplicate, each containing 100 µl of cytosol, 20 µl of 10 nM 6,7-^3H estradiol (50 Ci/mmol), and 80 µl of test agent at the final concentrations indicated on the abscissa. […]

[3] = tested on: MCF-7 human breast cancer xenografts; experiment: Human breast cancer xenograft assay, MCF-7; assay type: in vivo; conditions: E2 implant, 30-day observation
Protocol: Peptide or vehicle control was injected i.p. into immature female Swiss mice. One hour later 0.5 µg of E2 or vehicle control was injected i.p. into these mice. Twenty-two hours later, uteri were dissected and weighed. Percent inhibition of E2-stimulated growth of uterus by peptide was calculated as described in Materials and Methods. There were five to eight replicate mice per treatment group. (Figure 1a) Peptide dose-response. […] Peptide, SEQ ID NO:2: […], was fractionated using a Waters SW 200 gel-filtration column using phosphate buffered saline pH 7.4 as mobil phase. Fractions which had significant UV absorbance at 230 nm were collected at twenty second intervals. The first fraction (Frac I), the last fraction (Frac III), and the starting material (UnFrac) were all tested in the immature mouse uterine growth assay as described in Figures 1a and 1b. […] (Figure 3a) dose-response. […] (Figure 4a) dose-response. […] There were five to eight replicate mice per treatment group. Estrogen was provided via a slow release pellet implanted subcutaneously. Peptide was given twice a day i.p. at a dose of 1 µg per mouse. Tumor volumes in each mouse were measured at the time of tumor implantation and at 10-day intervals thereafter during survival laparotomies. […] (Figure 6a) dose-response. […] Experimental protocol is described in legend to Figure 5 and Materials and Methods. […] Rabbit uterine cytosol was used as a source of estrogen receptor. […] E2-complex with receptor in the presence of different concentrations of test agent is expressed as a percentage of the amount of complex formed in the absence of test agent; • Figures 9a and 9b illustrate the effect of AFP-derived peptide on growth of estrogen-receptor-positive MCF-7 and MCF-7/Tam.human breast cancer xenografts. […] Tumor volumes in each mouse were measured at the time of tumor implantation, again at day 15 after tumor implantation during survival laparotomy and again at day 30 after tumor implantation during necropsy. […]

[4] = mouse, in vivo
estrogen receptor = molecular target: T1, estrogen receptor (Oryctolagus cuniculus, UniProt G1SML6); conditions: at a concentration of 100 nM; rabbit uterine cytosol
T1 sequence (G1SML6 1-598): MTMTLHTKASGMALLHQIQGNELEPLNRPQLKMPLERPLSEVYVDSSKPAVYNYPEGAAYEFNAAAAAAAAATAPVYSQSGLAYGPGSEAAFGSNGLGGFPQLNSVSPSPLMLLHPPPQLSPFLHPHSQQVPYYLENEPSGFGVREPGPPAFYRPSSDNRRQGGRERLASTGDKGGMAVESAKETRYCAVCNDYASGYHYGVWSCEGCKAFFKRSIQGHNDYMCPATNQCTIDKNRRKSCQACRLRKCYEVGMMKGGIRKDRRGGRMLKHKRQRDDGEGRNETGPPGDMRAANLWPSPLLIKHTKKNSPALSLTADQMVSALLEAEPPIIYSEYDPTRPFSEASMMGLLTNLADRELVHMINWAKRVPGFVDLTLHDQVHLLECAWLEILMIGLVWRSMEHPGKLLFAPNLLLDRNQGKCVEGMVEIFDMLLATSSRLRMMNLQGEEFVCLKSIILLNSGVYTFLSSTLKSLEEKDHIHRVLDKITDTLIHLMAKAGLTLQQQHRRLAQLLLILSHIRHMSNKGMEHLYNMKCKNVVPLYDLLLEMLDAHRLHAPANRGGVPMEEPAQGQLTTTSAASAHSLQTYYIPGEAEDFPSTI
Protocol: as §1

[5] = tested on: MDA-MB-231 human breast cancer xenografts; experiment: Human breast cancer xenograft assay, MDA-MB-231; assay type: in vivo; conditions: tamoxifen 50 µg per mouse i.p. once a day
[6] = tested on: T47D human breast cancer xenografts; experiment: Human breast cancer xenograft assay, T47D; assay type: in vivo; conditions: tamoxifen
[7] = tested on: MCF-7 human breast cancer xenografts; conditions: earlier study (Bennett et al. 1998); cited from earlier work
[8] = tested on: MCF-7/Tam human breast cancer xenografts; experiment: Human breast cancer xenograft assay, tamoxifen-resistant MCF-7 subline; assay type: in vivo; conditions: tamoxifen 50 µg per mouse i.p. once a day; E2 implant; day 30
Protocol: Peptide or vehicle control was injected i.p. into immature female Swiss mice. One hour later 0.5 µg of E2 or vehicle control was injected i.p. into these mice. Twenty-two hours later, uteri were dissected and weighed. Percent inhibition of E2-stimulated growth of uterus by peptide was calculated as described in Materials and Methods. There were five to eight replicate mice per treatment group. (Figure 1a) Peptide dose-response. […] Peptide, SEQ ID NO:2: […], was fractionated using a Waters SW 200 gel-filtration column using phosphate buffered saline pH 7.4 as mobil phase. Fractions which had significant UV absorbance at 230 nm were collected at twenty second intervals. […] Tumor volumes in each mouse were measured at the time of tumor implantation and at 10-day intervals thereafter during survival laparotomies. […] E2-complex with receptor in the presence of different concentrations of test agent is expressed as a percentage of the amount of complex formed in the absence of test agent; • Figures 9a and 9b illustrate the effect of AFP-derived peptide on growth of estrogen-receptor-positive MCF-7 and MCF-7/Tam.human breast cancer xenografts. […] Tumor volumes in each mouse were measured at the time of tumor implantation, again at day 15 after tumor implantation during survival laparotomy and again at day 30 after tumor implantation during necropsy. […]

## CSCC[C@@H]1NC(=O)[C@H](CCC(=O)O)NC(=O)[C@H](CCC(N)=O)NC(=O)CNC(=O)[C@@H]2CCCN2C(=O)[C@H](CC(N)=O)NC(=O)[C@H](C(C)C)NC(=O)[C@@H]2CCCN2C(=O)[C@H]([C@@H](C)O)NC1=O (cyclo(EMTPVNPGQ))
[1]; at the optimal dose of the linear peptides (1 µg)
  inhibition of estrogen-stimulated growth of immature mouse uterus: very active
[1]
  dose of maximal inhibitory activity on estrogen-stimulated growth of immature mouse uterus: 10 µg per mouse
[2]; after storage of six months
  biological activity after prolonged storage: significant, albeit not optimal, biological activity
[2]
  shelf-life: somewhat extended but still rather limited shelf-life
[2]; stored/aged peptide, brief treatment with 4 M urea
  biological activity after treatment with 4 M urea: restored the optimal biological activity

## CSCC[C@@H]1NC(=O)[C@H](CCC(=O)O)NC(=O)[C@H](CCC(N)=O)NC(=O)CNC(=O)[C@@H]2C[C@@H](O)CN2C(=O)[C@H](CC(N)=O)NC(=O)[C@H](C(C)C)NC(=O)[C@@H]2C[C@@H](O)CN2C(=O)[C@H]([C@@H](C)O)NC1=O [Cyclo-(SEQ ID NO:5: EMTOVNOGQ), Cyclo-(EMTOVNOGQ)] (cyclo(EMT[Hyp]VN[Hyp]GQ))
[3]; peptide 1 µg per mouse i.p. twice a day, SCID mice
  estrogen-dependent growth of MCF-7 human breast cancer xenografts (tumor volume vs E2 alone): significantly inhibited
[1]; at doses higher than 10 µg/mouse
  anti-estrotrophic activity: retained significant anti-estrotrophic activity
[1]
  dose of maximal inhibitory activity on estrogen-stimulated growth of immature mouse uterus: 10 µg per mouse
[2]
  shelf-life: Indefinite shelflife; also recorded: indefinite shelf-life

## CSCC[C@H](NC(=O)[C@@H](N)CCC(=O)O)C(=O)N[C@H](C(=O)N1C[C@H](O)C[C@H]1C(=O)N[C@H](C(=O)N[C@@H](CC(N)=O)C(=O)N1C[C@H](O)C[C@H]1C(=O)NCC(N)=O)C(C)C)[C@@H](C)O [SEQ ID NO:4: EMTOVNOG, EMTOVNOG] (H-EMT[Hyp]VN[Hyp]G-NH2)
[4]
  biological half-life: two to three

## O=C(c1ccc(OCCN2CCCCC2)cc1)c1c(-c2ccc(O)cc2)sc2cc(O)ccc12 [raloxifene]
Estrogen receptor
  inhibition of estradiol binding to its receptor: completely inhibited

## CC/C(=C(\c1ccccc1)c1ccc(OCCN(C)C)cc1)c1ccccc1 [tamoxifen]
[5]
  growth of ER- MDA-MB-231 human breast cancer xenografts: Neither peptide nor tamoxifen were effective; also recorded: did not affect the growth
[3]; tamoxifen 50 µg per mouse i.p. once a day
  estrogen-dependent growth of MCF-7 human breast cancer xenografts (tumor volume vs E2 alone): prevented growth; also recorded: no increase in tumor volume
[3]; tamoxifen 50 µg per mouse i.p. once a day, listed as Tamoxifen
  estrogen-dependent growth of MCF-7 human breast cancer xenografts (tumor volume vs E2 alone): significantly different
[6]
  growth of ER+ T47D human breast cancer xenografts: prevented growth
[7]
  MCF-7 breast cancer xenograft growth: stop MCF-7 breast cancer xenograft growth
[8]
  growth of tamoxifen-resistant MCF-7 subline xenografts (tumor volume vs E2 alone): resistant to tamoxifen in vivo; also recorded: only minimally effective
